Source: paper PMC6272178, “Flavonoids from Sideritis Species: Human Monoamine Oxidase (hMAO) Inhibitory Activities, Molecular Docking Studies and Crystal Structure of Xanthomicrol” (Molecules, 2015)
Where two headings read alike, the source gives them in different places.

Legend:
hMAO-A [1] = biological target: T1, hMAO-A (Homo sapiens, UniProt P21397); experiment: hMAO-A inhibition, fluorimetric Amplex Red assay with p-tyramine, kinetic Ki determination; assay type: biochemical; conditions: for Mode of hMAO-A inhibition: Lineweaver–Burk plots; for Experimental SI: SI = Ki (MAO-A)/Ki (MAO-B); for Experimental SI / Selectivity: from experimental Ki values; for Selectivity: isoform preferentially inhibited; for Ki: recombinant hMAO-A, p-tyramine substrate 0.05–0.5 mM, mean ± SEM of three experiments, read-out: Experimental Ki for MAO-A
T1 construct: purchased Sigma-Aldrich (Munich, Germany); host or cells: baculovirus-infected BTI insect cells
T1 sequence (P21397 1-527): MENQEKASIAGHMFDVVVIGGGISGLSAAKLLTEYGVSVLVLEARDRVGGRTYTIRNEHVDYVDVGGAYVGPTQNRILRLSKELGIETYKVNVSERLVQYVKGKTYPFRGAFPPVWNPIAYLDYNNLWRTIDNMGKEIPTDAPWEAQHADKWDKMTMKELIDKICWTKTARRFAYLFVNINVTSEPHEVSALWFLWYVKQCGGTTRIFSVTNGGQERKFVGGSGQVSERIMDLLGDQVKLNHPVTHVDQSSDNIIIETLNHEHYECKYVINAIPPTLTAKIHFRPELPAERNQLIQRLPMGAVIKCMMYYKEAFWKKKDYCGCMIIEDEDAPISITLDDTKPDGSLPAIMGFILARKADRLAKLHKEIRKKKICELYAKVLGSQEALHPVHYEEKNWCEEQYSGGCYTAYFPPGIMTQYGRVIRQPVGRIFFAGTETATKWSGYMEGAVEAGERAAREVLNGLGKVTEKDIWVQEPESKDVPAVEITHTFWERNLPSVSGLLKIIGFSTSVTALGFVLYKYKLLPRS

hMAO-B = biological target: T2, hMAO-B (Homo sapiens, UniProt P27338); experiment: hMAO-B inhibition, fluorimetric Amplex Red assay with p-tyramine, kinetic Ki determination; assay type: biochemical; conditions: recombinant hMAO-B, p-tyramine substrate 0.05–0.5 mM, mean ± SEM of three experiments; read-out: Experimental Ki for MAO-B
T2 construct: purchased Sigma-Aldrich (Munich, Germany); host or cells: baculovirus-infected BTI insect cells
T2 sequence (P27338 1-520): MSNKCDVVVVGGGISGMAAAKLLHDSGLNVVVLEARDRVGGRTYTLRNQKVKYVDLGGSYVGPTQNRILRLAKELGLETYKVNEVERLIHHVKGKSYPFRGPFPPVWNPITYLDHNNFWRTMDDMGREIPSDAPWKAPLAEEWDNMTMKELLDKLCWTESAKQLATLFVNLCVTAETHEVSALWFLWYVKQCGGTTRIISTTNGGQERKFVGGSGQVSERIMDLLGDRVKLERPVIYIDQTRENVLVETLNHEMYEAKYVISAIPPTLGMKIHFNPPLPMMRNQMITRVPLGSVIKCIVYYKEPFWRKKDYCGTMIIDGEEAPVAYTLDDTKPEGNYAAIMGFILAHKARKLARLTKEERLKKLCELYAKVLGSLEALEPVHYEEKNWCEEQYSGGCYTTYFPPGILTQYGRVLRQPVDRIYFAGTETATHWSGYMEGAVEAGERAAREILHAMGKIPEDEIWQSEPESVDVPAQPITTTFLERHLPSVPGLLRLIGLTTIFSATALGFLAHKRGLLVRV

hMAO-A [2] = biological target: T1, hMAO-A; experiment: Reversibility of hMAO-A inhibition, centrifugation-ultrafiltration method; assay type: biochemical; conditions: for inhibition at 0.5 µM: compound 0.50 μM, mean ± SEM of three experiments; for Reversibility of hMAO-A inhibition: recovery of hMAO-A activity after repeated washing
Experimental: Reversibility of the MAO inhibition with newly synthesized compounds was determined by centrifugation-ultrafiltration method previously described. Recombinant enzymes (hMAO-A or B) were incubated with a single concentration of the synthesized compounds or the reference inhibitors in a sodium phosphate buffer (0.05 M, pH 7.4) for one hour at 37 °C. An aliquot was stored at 4 °C and used for the measurement of MAO-A and -B activities. The remaining incubated sample was placed in an Ultrafree-0.5 centrifugal tube with a 30 kDa Biomax membrane and centrifuged at 9000× g for 20 min at 4 °C. The enzyme retained in the 30 kDa membrane was re-suspended in a sodium phosphate buffer at 4 °C and centrifuged two more times. After the third centrifugation, the enzyme retained in the membrane was re-suspended in sodium phosphate buffer ([…]) and an aliquot of this suspension was used for MAO-A and -B activity determination. Control experiments were performed simultaneously to determine the 100% MAO activity by replacing the compounds and standards with appropriate dilutions of the vehicles. The corresponding values of percent (%) MAO isoform inhibition was separately calculated for samples with and without repeated washing.

mouse brain MAO-A = system: mouse brain MAO-A; set-up: method as in PMID 24218136, PMID 25142815; conditions: flavonoids from Cayratia japonica; cited from earlier work
[3] = after repeated washing (three centrifugation-ultrafiltration steps), read-out: hMAO-A Inhibition (%) After Washing
[4] = incubated one hour at 37 °C, before washing, read-out: hMAO-A Inhibition (%) Before Washing

COc1ccc(-c2cc(=O)c3c(O)c(OC)c(OC)cc3o2)cc1 [Compound 4, salvigenin]
Mode of hMAO-A inhibition (hMAO-A [1]): competitive
Experimental SI (hMAO-A [1]): 0.086
Selectivity (hMAO-A [1]): MAO-A
Ki (hMAO-A [1]): 0.54 ± 0.02 µM
Ki (hMAO-B): 6.27 ± 0.36 µM
inhibition at 0.5 µM (hMAO-A [2]; [3]): 8.66 ± 0.65%
inhibition at 0.5 µM (hMAO-A [2]; [4]): 89 ± 5.02%
Reversibility of hMAO-A inhibition (hMAO-A [2]): highly reversible inhibitors

COc1c(OC)c(O)c2c(=O)cc(-c3ccc(O)cc3)oc2c1OC [Compound 1, xanthomicrol]
Mode of hMAO-A inhibition (hMAO-A [1]): competitive
Experimental SI (hMAO-A [1]): 0.007
Selectivity (hMAO-A [1]): MAO-A
Ki (hMAO-A [1]): 0.76 ± 0.03 µM
Ki (hMAO-B): 99.5 ± 7.44 µM
inhibition at 0.5 µM (hMAO-A [2]; [3]): 9.23 ± 0.75%
inhibition at 0.5 µM (hMAO-A [2]; [4]): 86.5 ± 5.21%
Reversibility of hMAO-A inhibition (hMAO-A [2]): highly reversible inhibitors

O=c1cc(-c2ccc(O)cc2)oc2cc(O)cc(O)c12 [apigenin]
IC50 (mouse brain MAO-A): 1.17 µM

CC(=O)OC[C@H]1O[C@@H](O[C@H]2[C@H](Oc3cc(O)c4c(=O)cc(-c5ccc(O)cc5)oc4c3O)O[C@H](CO)[C@@H](O)[C@@H]2O)[C@H](O)[C@H](O)[C@@H]1O [Compound 2, isoscutellarein 7-O-[6'''-O-acetyl-β-D-allopyranosyl-(1→2)]-β-D-glucopyranoside]
Experimental SI (hMAO-A [1]): 0.015
Selectivity (hMAO-A [1]): MAO-A
Ki (hMAO-A [1]): 1100 ± 99.2 µM
Ki (hMAO-B): 75600 µM
inhibition at 0.5 µM (hMAO-A [2]; [3]): 10.9 ± 0.99%
inhibition at 0.5 µM (hMAO-A [2]; [4]): 80.2 ± 5.66%

O=C(NCCN1CCOCC1)c1ccc(Cl)cc1 [Moclobemide, moclobemide, reference compound]
inhibition at 0.5 µM (hMAO-A [2]; [3]): 7.89 ± 0.52%
inhibition at 0.5 µM (hMAO-A [2]; [4]): 91.2 ± 6.33%

CC(=O)OC[C@H]1O[C@@H](O[C@H]2[C@H](Oc3cc(O)c4c(=O)cc(-c5ccc(O)cc5)oc4c3O)O[C@H](COC(C)=O)[C@@H](O)[C@@H]2O)[C@H](O)[C@H](O)[C@@H]1O [Compound 3, isoscutellarein 7-O-[6'''-O-acetyl-β-D-allopyranosyl-(1→2)]-6''-O-acetyl-β-D-glucopyranoside]
Experimental SI (hMAO-A [1]): 0.034
Selectivity (hMAO-A [1]): MAO-A
Ki (hMAO-A [1]): 2800 ± 180 µM
Ki (hMAO-B): 80500 µM
inhibition at 0.5 µM (hMAO-A [2]; [3]): 13.3 ± 1.09%
inhibition at 0.5 µM (hMAO-A [2]; [4]): 74.2 ± 4.89%
